In ChEMBL document CHEMBL1158221, “Nigranoic acid, a triterpenoid from Schisandra sphaerandra that inhibits HIV-1 reverse transcriptase” (J Nat Prod, 1996):

Experiments:
[1] = Inhibition of HIV2 reverse transcriptase; design: species or system Human immunodeficiency virus 2
[2] = Inhibition of DNA polymerase beta
[3] = Inhibition of RNA polymerase
[4] = molecular target: Human immunodeficiency virus type 1 reverse transcriptase (Human immunodeficiency virus 1) (UniProt Q72547); experiment: Inhibition of HIV1 reverse transcriptase at 200 ug/ml
[5] = Inhibition of RNaseH
[6] = Inhibition of RNA polymerase at 200 ug/ml
[7] = Inhibition of HIV1 reverse transcriptase mutant; design: species or system Human immunodeficiency virus 1
[8] = Inhibition of DNA dependent DNA polymerase
[9] = Inhibition of DNA polymerase alpha at 200 ug/ml
[10] = Inhibition of DNA polymerase alpha
[11] = tested on: Human immunodeficiency virus 2; experiment: Inhibition of HIV2 reverse transcriptase at 200 ug/ml
[12] = Inhibition of DNA polymerase beta at 200 ug/ml
[13] = tested on: Human immunodeficiency virus 1; experiment: Inhibition of HIV1 reverse transcriptase mutant at 200 ug/ml
[14] = Inhibition of RNaseH at 200 ug/ml
[15] = tested on: Avian myeloblastosis virus; experiment: Inhibition of AMV reverse transcriptase at 200 ug/ml
[16] = Inhibition of DNA dependent DNA polymerase at 200 ug/ml
[17] = Inhibition of AMV reverse transcriptase; design: species or system Avian myeloblastosis virus
[18] = molecular target: Human immunodeficiency virus type 1 reverse transcriptase (Human immunodeficiency virus 1, UniProt Q72547); experiment: Inhibition of HIV1 reverse transcriptase

SMILES: C=C(C)[C@@H]1CC[C@@H]2[C@]3(CC[C@]4(C)[C@@H]([C@H](C)CC/C=C(/C)C(=O)O)CC[C@@]24C)C[C@]13CCC(=O)O [NIGRANOIC ACID]
- IC50 [1]: 356 µM
- IC50 [2]: 16.6 µM
- IC50 [3]: 188 µM
- inhibition [4]: 99.4%
- IC50 [5]: > 425 µM
- inhibition [6]: 75.4%
- IC50 [7]: 388 µM
- IC50 [8]: 40.6 µM
- inhibition [9]: 46.2%
- IC50 [10]: > 425 µM
- inhibition [11]: 76.7%
- inhibition [12]: 99.1%
- inhibition [13]: 71%
- inhibition [14]: 6.8%
- inhibition [15]: 99.2%
- inhibition [16]: 96.7%
- IC50 [17]: 242 µM
- IC50 [18]: 159 µM
